Results on 45 molecules are retold here after patent US11040954B1, “CXCR3 receptor agonists” (RECEPTOS LLC, priority 2016, dated 2021).

This experiment addresses T1, CXCR3 (Homo sapiens, UniProt P49682).
T1 construct: host or cells: CHO-K1 (cAMP Hunter CHOK1 CXCR3 Gi cell line)
T1 sequence (P49682 1-368): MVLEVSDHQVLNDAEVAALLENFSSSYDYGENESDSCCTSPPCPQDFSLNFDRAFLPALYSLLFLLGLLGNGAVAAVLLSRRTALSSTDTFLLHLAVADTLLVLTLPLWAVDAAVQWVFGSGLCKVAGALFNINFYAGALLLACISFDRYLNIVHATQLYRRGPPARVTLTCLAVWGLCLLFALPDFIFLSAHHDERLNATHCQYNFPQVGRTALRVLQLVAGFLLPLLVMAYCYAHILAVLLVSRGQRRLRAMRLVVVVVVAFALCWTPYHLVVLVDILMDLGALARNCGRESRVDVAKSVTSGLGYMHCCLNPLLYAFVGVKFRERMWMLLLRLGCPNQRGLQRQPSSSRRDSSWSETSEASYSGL
As to the kind of experiment: CXCR3 cAMP agonist assay (cAMP Hunter CHOK1 CXCR3 Gi cell line, forskolin-stimulated, HitHunter cAMP detection). Format: cell-based. To be noted: cAMP Hunter CHOK1 CXCR3 Gi cells, 20 μM forskolin, 30 minutes; read-out: Activity (CXCR3 cAMP agonist assay compound EC50). The gist of the method: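 CHOK1 cells expressing human CXCR3 with Gi coupling, 50,000/well in suspension in HBSS/10 mM HEPES/0.1% BSA pH 7.4, were co-treated with 20 μM forskolin and compound (12-point, 0-10 μM, 1% DMSO) for 30 min. cAMP was read by enzyme-complementation luminescence; CXCL11 dose response set maximum efficacy.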

In the case of `CS(=O)(=O)Oc1ccc2c(c1)CN(C(=O)CCC(=O)c1ccccc1)[C@H](C(=O)N[C@@H](CCN)C(=O)Nc1ccc(Cl)c(Cl)c1F)C2` [Compound 29-1, (S)-3-(((S)-4-amino-1-((3,4-dichloro-2-fluorophenyl)amino)-1-oxobutan-2-yl)carbamoyl)-2-(4-oxo-4-phenylbutanoyl)-1,2,3,4-tetrahydroisoquinolin-7-yl methanesulfonate], the EC50 is 50 to 250 nM.
The same measure for `Cc1cc(NC(=O)[C@H](CCN)NC(=O)[C@@H]2Cc3ccccc3CN2C(=O)CCC(=O)N2CC3CC(C3)C2)ccc1Cl` [Compound 12-66]: less than 50 nM.
Turning to `Cc1c(Cl)ccc(NC(=O)C2(NC(=O)[C@@H]3Cc4ccccc4CN3C(=O)CCC(=O)c3ccccc3)CCNCC2)c1C` [Compound 11-4], the EC50 is 50 to 250 nM.
Then `CC(C)CC1CCCCN1C(=O)CCC(=O)N1Cc2ccccc2C[C@H]1C(=O)N[C@@H](CCN)C(=O)Nc1ccc(Cl)c(Cl)c1F` (stereo partly drawn) [Compound 15-20], with less than 50 nM.
The same measure for `Cc1cc(NC(=O)[C@H](CCN)NC(=O)[C@@H]2Cc3ccccc3CN2C(=O)CCC(=O)N2CCOCC2(C)C)ccc1Cl` [Compound 12-23]: less than 50 nM; for `NCC[C@H](NC(=O)[C@@H]1Cc2ccccc2CN1C(=O)CCC(=O)c1ccccc1)C(=O)Nc1cccc(C(F)(F)F)c1` [Compound 2-6]: 50 to 250 nM; for `Cc1cc(NC(=O)[C@H](CCN)NC(=O)[C@@H]2Cc3ccccc3CN2C(=O)CCC(=O)N2CCN(C)C2)ccc1Cl` [Compound 12-145]: less than 50 nM.
Then `NC12CC(CC(NC(=O)[C@@H]3Cc4ccccc4CN3C(=O)CCC(=O)c3ccccc3)C(=O)Nc3ccc(Cl)c(Cl)c3F)(C1)C2` (mixture of isomers) [Compound 22-3], with less than 50 nM; and `Cc1cccc(NC(=O)[C@H](CCN)NC(=O)[C@@H]2Cc3ccccc3CN2C(=O)CCC(=O)c2ccccc2)c1O` [Compound 2-50], with 250 to 500 nM.
For `NCC[C@H](NC(=O)[C@@H]1Cc2ccc(F)cc2CN1C(=O)CCC(=O)N1CCCC2(CCC2)C1)C(=O)Nc1ccc(Cl)c(Cl)c1F` [Compound 15-58], the EC50 was less than 50 nM.
As for `CC[C@H]1CCCCN1C(=O)CCC(=O)N1Cc2ccccc2C[C@H]1C(=O)N[C@@H](CCN)C(=O)Nc1ccc(Cl)c(C)c1` [Compound 12-97], the EC50 was less than 50 nM.
Consider `Cc1cc(NC(=O)[C@H](CCN)NC(=O)[C@@H]2Cc3ccccc3CN2C(=O)CCC(=O)N2CCN(c3ncccn3)CC2)ccc1Cl` [Compound 12-107], for which the EC50 was 50 to 250 nM.
`N#Cc1c(NC(=O)[C@H](CCN)NC(=O)[C@@H]2Cc3ccccc3CN2C(=O)CCC(=O)c2ccccc2)ccc2c1CCC2` [Compound 35-1, (S)—N—((S)-4-amino-1-((4-cyano-2,3-dihydro-1H-inden-5-yl)amino)-1-oxobutan-2-yl)-2-(4-oxo-4-phenylbutanoyl)-1,2,3,4-tetrahydroisoquinoline-3-carboxamide]: the EC50 is less than 50 nM.
The same measure for `CC(C)(O)C1CCCCN1C(=O)CCC(=O)N1Cc2ccccc2C[C@H]1C(=O)N[C@@H](CCN)C(=O)Nc1ccc(Cl)c(Cl)c1F` (stereo partly drawn) [Compound 15-55]: less than 50 nM; for `Cc1cc(NC(=O)[C@H](CC(N)=O)NC(=O)[C@@H]2Cc3ccccc3CN2C(=O)CCC(=O)c2ccccc2)ccc1Cl` [Compound 3-12]: 50 to 250 nM.
Then `C[C@@H]1CN(C(=O)CCC(=O)N2Cc3ccccc3C[C@H]2C(=O)N[C@@H](CCN)C(=O)Nc2ccc(Cl)c(Cl)c2F)CCN1C` [Compound 15-64], with 50 to 250 nM; and `O=C(CCC(=O)N1Cc2ccccc2C[C@H]1C(=O)NC1(C(=O)Nc2ccc3c(c2)CCC3)CCNCC1)c1ccccc1` [Compound 13-1], with less than 50 nM.
Then `NCCCC[C@H](NC(=O)[C@@H]1Cc2ccccc2CN1C(=O)CCC(=O)c1ccccc1)C(=O)Nc1ccc(Cl)cc1` [Compound 1-2], with 250 to 500 nM.
For `CCc1cc(Cl)c(C)cc1NC(=O)[C@H](CCN)NC(=O)[C@@H]1Cc2ccccc2CN1C(=O)CCC(=O)c1ccccc1` [Compound 2-41], the EC50 was 50 to 250 nM.
Then `Cc1nc2ccc(NC(=O)[C@H](CCN)NC(=O)[C@@H]3Cc4ccccc4CN3C(=O)CCC(=O)c3ccccc3)cc2s1` [Compound 2-64], with 250 to 500 nM.
On to `Cc1ccc(NC(=O)C2(NC(=O)[C@@H]3Cc4ccccc4CN3C(=O)CCC(=O)c3ccccc3)CCNCC2)c(F)c1` [Compound 13-2], for which the EC50 fell in the range of 50 to 250 nM.
Regarding `CCc1ccc(NC(=O)[C@H](CCN)NC(=O)[C@@H]2Cc3ccccc3CN2C(=O)CCC(=O)c2ccccc2)c(F)c1` [Compound 2-56], the EC50 was in the range of 250 to 500 nM.
For `NCCCC[C@H](NC(=O)[C@@H]1Cc2ccccc2CN1C(=O)CCC(=O)c1ccccc1)C(=O)Nc1ccc(C(F)(F)F)c(Cl)c1` [Compound 1-22], the EC50 fell in the range of 250 to 500 nM.
Then `O=C(CCC(=O)N1Cc2ccccc2CC1C(=O)NC(CCN1CCC(F)CC1)C(=O)Nc1ccc2c(c1)CCC2)c1ccccc1` (racemic) [Compound 23-1, N-(1-((2,3-dihydro-1H-inden-5-yl)amino)-4-(4-fluoropiperidin-1-yl)-1-oxobutan-2-yl)-2-(4-oxo-4-phenylbutanoyl)-1,2,3,4-tetrahydroisoquinoline-3-carboxamide], with greater than 500 nM; and `Cc1cccc(NC(=O)[C@H](CCN2CCC(O)CC2)NC(=O)[C@@H]2Cc3ccccc3CN2C(=O)CCC(=O)c2ccccc2)c1F` [Compound 28-2], with less than 50 nM; and `COc1c(NC(=O)[C@H](CCN)NC(=O)[C@@H]2Cc3ccccc3CN2C(=O)CCC(=O)c2ccccc2)ccc2c1CCC2` [Compound 2-58], with 50 to 250 nM.
The same measure for `CN(C)C(=N)NCCC[C@H](NC(=O)[C@@H]1Cc2ccccc2CN1C(=O)CCC(=O)c1ccccc1)C(=O)Nc1ccc(Cl)c(Cl)c1` [Compound 5-1, (S)—N—((S)-1-((3,4-dichlorophenyl)amino)-5-(3,3-dimethylguanidino)-1-oxopentan-2-yl)-2-(4-oxo-4-phenylbutanoyl)-1,2,3,4-tetrahydroisoquinoline-3-carboxamide]: less than 50 nM; for `CO[C@@H]1CCCN(C(=O)CCC(=O)N2Cc3ccccc3C[C@H]2C(=O)N[C@@H](CCN)C(=O)Nc2ccc(Cl)c(Cl)c2F)C1` [Compound 15-27]: less than 50 nM; for `NCC[C@H](NC(=O)[C@@H]1Cc2ccccc2CN1C(=O)CCC(=O)N1CCC2(CCC2)C1)C(=O)Nc1ccc(Cl)c(Cl)c1F` [Compound 15-33]: less than 50 nM.
`Cc1cc(NC(=O)[C@H](CCN)NC(=O)[C@@H]2Cc3ccccc3CN2C(=O)CCC(=O)N2CCCCC2C#N)ccc1Cl` (stereo partly drawn) [Compound 12-84]: the EC50 is less than 50 nM.
Take `Cc1ccc(NC(=O)[C@H](CCN)NC(=O)[C@@H]2Cc3ccccc3CN2C(=O)CCC(=O)c2ccccc2)c(OC(F)(F)F)c1` [Compound 13-7]: the EC50 fell in the range of 50 to 250 nM.
For the molecule `Cc1cc(NC(=O)[C@H](CCN)NC(=O)[C@@H]2Cc3ccccc3CN2C(=O)CCC(=O)N(C)C(C)(C)C)ccc1Cl` [Compound 12-93], the EC50 was less than 50 nM.
The same measure for `Cc1cc(NC(=O)[C@H](CCN)NC(=O)[C@@H]2Cc3ccccc3CN2C(=O)CCC(=O)NCC(C)(C)C)ccc1Cl` [Compound 12-91]: less than 50 nM; for `CC[C@@H]1CN(C(=O)CCC(=O)N2Cc3ccccc3C[C@H]2C(=O)N[C@@H](CCN)C(=O)Nc2ccc(Cl)c(C)c2)CCN1C` [Compound 12-151]: less than 50 nM.
The same measure for `COC1CCN(C(=O)CCC(=O)N2Cc3ccccc3C[C@H]2C(=O)N[C@@H](CCN)C(=O)Nc2ccc(Cl)c(C)c2)C1` (stereo partly drawn) [Compound 12-64]: less than 50 nM; for `Cc1ccc(NC(=O)[C@H](CCN2CCC(O)CC2)NC(=O)[C@@H]2Cc3ccccc3CN2C(=O)CCC(=O)c2ccccc2)c(F)c1` [Compound 28-3]: 250 to 500 nM.
The same measure for `Cc1cc(NC(=O)[C@H](CCN)NC(=O)[C@@H]2Cc3ccccc3CN2C(=O)CCC(=O)N2CCN(C)C(C)(C)C2)ccc1Cl` [Compound 12-131]: less than 50 nM; for `NCC[C@H](NC(=O)[C@@H]1Cc2ccccc2CN1C(=O)CCC(=O)c1ccccc1)C(=O)Nc1ccc2c(c1)CCC2=O` [Compound 2-69]: greater than 500 nM.
For the molecule `CC[C@H]1CCN(C(=O)CCC(=O)N2Cc3ccccc3C[C@H]2C(=O)N[C@@H](CCN)C(=O)Nc2ccc(Cl)c(C)c2)C1` [Compound 12-153], the EC50 is less than 50 nM.
The same measure for `Cc1cc(NC(=O)[C@H](CCN)NC(=O)[C@@H]2Cc3ccccc3CN2C(=O)CCC(=O)N2CC(C)C(C)C2)ccc1Cl` (stereo partly drawn) [Compound 12-68]: less than 50 nM; for `Cc1cc(Cl)ccc1NC(=O)[C@H](CCCCN)NC(=O)[C@@H]1Cc2ccccc2CN1C(=O)CCC(=O)c1ccccc1` [Compound 1-24]: 50 to 250 nM; for `NCC[C@H](NC(=O)[C@@H]1Cc2ccccc2CN1C(=O)CCC(=O)c1ccccc1)C(=O)Nc1c(F)cccc1Cl` [Compound 14-9]: 250 to 500 nM.
As to `Cc1c(F)cc(NC(=O)[C@H](CCN)NC(=O)[C@@H]2Cc3ccccc3CN2C(=O)CCC(=O)c2ccccc2)cc1F` [Compound 27-5], the EC50 is less than 50 nM.
The same measure for `Cc1cc(NC(=O)[C@H](CCN)NC(=O)[C@@H]2Cc3ccccc3CN2C(=O)CCC(=O)NCCOC(C)C)ccc1Cl` [Compound 12-89]: greater than 500 nM.
Then `Cc1cc(NC(=O)[C@H](CCN)NC(=O)[C@@H]2Cc3ccccc3CN2C(=O)CCC(=O)N2CCC(c3ccccc3)C2)ccc1Cl` (stereo partly drawn) [Compound 12-54], with 50 to 250 nM.
